{"source": "ChEMBL document CHEMBL5500376", "about": "“Novel pyxinol amide derivatives bearing an aliphatic heterocycle as P-glycoprotein modulators for overcoming multidrug resistance” (Eur J Med Chem, 2024)", "key": {"[1]": {"test": "Cytotoxicity against human KBV cells assessed as cell survival measured after 72 hrs incubation by MTT assay", "format": "functional, cell-based"}, "[2]": {"test": "Cytotoxicity against human HK-2 cells assessed as cell survival measured after 72 hrs incubation by MTT assay", "format": "toxicity, cell-based"}, "[3]": {"test": "Cytotoxicity against HUVEC cells assessed as cell survival measured after 72 hrs incubation by MTT assay", "format": "toxicity, cell-based", "conditions": "human"}, "[4]": {"target": "T1, ATP-dependent translocase ABCB1 (Homo sapiens, UniProt P08183)", "T1 sequence (P08183 whole entry)": "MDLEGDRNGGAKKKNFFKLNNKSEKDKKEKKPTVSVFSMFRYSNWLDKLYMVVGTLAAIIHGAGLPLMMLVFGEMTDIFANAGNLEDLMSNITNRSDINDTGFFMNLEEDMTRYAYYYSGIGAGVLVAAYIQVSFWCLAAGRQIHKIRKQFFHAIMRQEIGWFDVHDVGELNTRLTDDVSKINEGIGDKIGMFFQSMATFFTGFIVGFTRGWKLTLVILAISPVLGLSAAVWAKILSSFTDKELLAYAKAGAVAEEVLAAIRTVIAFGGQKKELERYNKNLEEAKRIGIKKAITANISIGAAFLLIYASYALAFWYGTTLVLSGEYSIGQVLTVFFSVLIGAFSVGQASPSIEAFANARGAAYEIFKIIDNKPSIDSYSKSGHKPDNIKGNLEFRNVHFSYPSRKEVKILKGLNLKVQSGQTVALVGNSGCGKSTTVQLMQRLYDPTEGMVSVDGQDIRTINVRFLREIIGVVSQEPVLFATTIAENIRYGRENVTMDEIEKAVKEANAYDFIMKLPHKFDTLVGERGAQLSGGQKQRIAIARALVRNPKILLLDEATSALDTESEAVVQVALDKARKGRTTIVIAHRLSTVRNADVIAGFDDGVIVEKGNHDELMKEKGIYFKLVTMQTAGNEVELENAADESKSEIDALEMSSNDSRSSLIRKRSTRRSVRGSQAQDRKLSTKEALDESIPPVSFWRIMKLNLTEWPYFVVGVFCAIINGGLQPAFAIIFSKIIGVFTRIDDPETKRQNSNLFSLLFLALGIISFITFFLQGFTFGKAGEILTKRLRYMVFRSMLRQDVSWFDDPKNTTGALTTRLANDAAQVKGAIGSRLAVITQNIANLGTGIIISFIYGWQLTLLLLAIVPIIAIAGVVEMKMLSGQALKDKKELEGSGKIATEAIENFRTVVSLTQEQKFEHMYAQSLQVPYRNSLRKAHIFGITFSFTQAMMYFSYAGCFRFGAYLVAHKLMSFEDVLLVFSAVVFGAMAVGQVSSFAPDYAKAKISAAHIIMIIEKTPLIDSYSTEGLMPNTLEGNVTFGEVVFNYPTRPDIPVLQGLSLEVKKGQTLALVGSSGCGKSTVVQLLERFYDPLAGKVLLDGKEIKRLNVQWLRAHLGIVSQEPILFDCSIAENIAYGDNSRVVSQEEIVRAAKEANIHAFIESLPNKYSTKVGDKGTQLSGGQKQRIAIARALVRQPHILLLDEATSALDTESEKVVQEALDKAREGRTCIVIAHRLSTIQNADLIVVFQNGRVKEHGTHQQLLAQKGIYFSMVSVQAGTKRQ", "test": "Substrate activity at Pgp in human KVB cells assessed as intracellular accumulation measured after 4 hrs by LC-MS/MS analysis", "format": "cell-based", "conditions": "kbv"}, "[5]": {"test": "Reversal fold, ratio of 5-fluorouracil IC50 to 5-fluorouracil IC50 in presence of test compound for reversal of multi-drug resistance in human KVB cells at 10 uM measured after 72 hrs by MTT assay", "format": "functional, KBV"}, "[6]": {"test": "Reversal fold, ratio of cisplatin IC50 to cisplatin IC50 in presence of test compound for reversal of multi-drug resistance in human KVB cells at 25 uM measured after 72 hrs by MTT assay", "format": "functional, KBV"}, "[7]": {"test": "Reversal of multi-drug resistance in human KVB cells assessed as increase in PTX-induced cytotoxicity by measuring cell survival at 5 uM measured after 72 hrs incubation in presence of 100 nM paclitaxel by MTT assay relative to control", "format": "functional, KBV"}, "[8]": {"test": "Reversal fold, ratio of PTX IC50 to PTX IC50 in presence of test compound for reversal of multi-drug resistance in human KVB cells at 5 uM measured after 72 hrs by MTT", "format": "functional, KBV"}, "[9]": {"test": "Cytotoxicity against human KBV cells assessed as cell survival at 5 uM measured after 72 hrs incubation by MTT assay relative to control", "format": "functional", "conditions": "read-out: Activity"}, "[10]": {"target": "T1, ATP-dependent translocase ABCB1", "test": "Inhibition of P-gp-mediated rhodamine-123 efflux in human KVB cells assessed as increase in intracellular Rhodamine-123 accumulation at 10 uM incubated for 30 mins by flow cytometry", "format": "cell-based", "conditions": "kbv, 0.5 h"}, "[11]": {"test": "Reversal fold, ratio of PTX IC50 to PTX IC50 in presence of test compound for reversal of multi-drug resistance in human KVB cells at 10 uM measured after 72 hrs by MTT assay", "format": "functional, KBV"}, "KBV [12]": {"system": "KBV", "test": "Inhibition of colony formation of human KVB cells assessed as reduction in colonies at 2.5 uM measured after 48 hrs by crystal violet staining based analysis", "format": "functional, cell-based"}, "KBV [13]": {"system": "KBV", "test": "Antimigratory activity against human KVB cells assessed as inhibition of cell migration at 50 nM and incubated for 24 hrs by scratch wound healing assay", "format": "functional, cell-based"}, "[14]": {"target": "Multidrug resistance-associated protein 1 (Homo sapiens, UniProt P33527)", "sequence (P33527 whole entry)": "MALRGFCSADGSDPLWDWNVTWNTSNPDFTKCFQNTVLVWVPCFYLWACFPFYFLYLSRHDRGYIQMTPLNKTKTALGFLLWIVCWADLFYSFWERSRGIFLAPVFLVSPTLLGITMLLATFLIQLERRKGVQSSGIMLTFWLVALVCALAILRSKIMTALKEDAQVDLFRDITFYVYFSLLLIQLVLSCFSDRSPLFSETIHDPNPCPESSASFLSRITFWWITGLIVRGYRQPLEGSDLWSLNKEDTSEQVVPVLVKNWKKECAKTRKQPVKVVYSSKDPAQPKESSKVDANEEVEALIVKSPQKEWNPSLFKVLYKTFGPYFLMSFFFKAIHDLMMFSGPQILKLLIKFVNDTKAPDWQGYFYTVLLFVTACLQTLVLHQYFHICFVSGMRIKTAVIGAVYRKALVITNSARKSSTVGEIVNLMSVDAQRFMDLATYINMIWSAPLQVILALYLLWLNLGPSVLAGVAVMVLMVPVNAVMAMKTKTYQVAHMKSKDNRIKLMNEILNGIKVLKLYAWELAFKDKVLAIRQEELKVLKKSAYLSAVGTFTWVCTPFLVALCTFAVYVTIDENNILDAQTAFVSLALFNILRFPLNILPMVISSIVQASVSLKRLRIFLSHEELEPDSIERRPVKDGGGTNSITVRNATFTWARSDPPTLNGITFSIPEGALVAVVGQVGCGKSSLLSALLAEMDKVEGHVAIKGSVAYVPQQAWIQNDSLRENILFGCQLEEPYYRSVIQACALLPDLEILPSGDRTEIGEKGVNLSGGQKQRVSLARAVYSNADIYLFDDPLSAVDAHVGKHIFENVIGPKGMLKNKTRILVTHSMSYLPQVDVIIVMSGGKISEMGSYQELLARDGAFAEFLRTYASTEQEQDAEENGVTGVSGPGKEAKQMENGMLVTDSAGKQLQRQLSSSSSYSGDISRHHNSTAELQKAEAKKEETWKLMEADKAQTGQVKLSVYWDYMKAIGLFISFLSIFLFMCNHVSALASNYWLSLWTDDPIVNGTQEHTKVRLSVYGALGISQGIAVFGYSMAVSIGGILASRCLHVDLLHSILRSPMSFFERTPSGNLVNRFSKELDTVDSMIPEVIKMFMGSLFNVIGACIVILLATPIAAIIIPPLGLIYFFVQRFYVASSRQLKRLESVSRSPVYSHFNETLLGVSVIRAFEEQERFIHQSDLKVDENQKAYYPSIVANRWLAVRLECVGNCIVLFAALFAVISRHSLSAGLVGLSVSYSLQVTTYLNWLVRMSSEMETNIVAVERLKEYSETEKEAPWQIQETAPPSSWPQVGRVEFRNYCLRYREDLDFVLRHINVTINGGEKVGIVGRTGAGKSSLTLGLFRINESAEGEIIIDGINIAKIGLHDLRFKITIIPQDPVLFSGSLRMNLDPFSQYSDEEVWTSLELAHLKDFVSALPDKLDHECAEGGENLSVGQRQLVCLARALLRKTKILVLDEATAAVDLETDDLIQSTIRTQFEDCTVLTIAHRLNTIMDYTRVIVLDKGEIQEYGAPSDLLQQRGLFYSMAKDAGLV", "test": "Thermal stabilization of ABCC1 in human KVB cells by CETSA assay", "format": "cell-based", "conditions": "kbv"}, "KBV [15]": {"system": "KBV", "test": "Effect on P-gp sub-cellular localization in human KVB cells at 10 uM measured for 48 hrs incubation by immunofluorescence assay", "format": "functional, cell-based"}, "[16]": {"test": "Reversal fold, ratio of 5-fluorouracil IC50 to 5-fluorouracil IC50 in presence of test compound for reversal of multi-drug resistance in human KVB cells at 5 uM measured after 72 hrs by MTT assay", "format": "functional, KBV"}, "[17]": {"test": "Reversal fold, ratio of ADR IC50 to ADR IC50 in presence of test compound for reversal of multi-drug resistance in human KVB cells at 5 uM measured after 72 hrs by MTT", "format": "functional, KBV"}, "KBV [18]": {"system": "KBV", "test": "Reduction in P-gp protein level in human KVB cells at 10 uM measured upto 96 hrs incubation by Western blot analysis", "format": "functional, cell-based"}, "[19]": {"test": "Reversal fold, ratio of cisplatin IC50 to cisplatin IC50 in presence of test compound for reversal of multi-drug resistance in human KVB cells at 5 uM measured after 72 hrs by MTT assay", "format": "functional, KBV"}, "[20]": {"target": "T1, ATP-dependent translocase ABCB1", "test": "Inhibition of P-gp-mediated Ptx-C efflux in human KVB cells assessed as increase in fluorescence intensity incubated for 3 hrs by confocal microscopic analysis", "format": "cell-based", "conditions": "kbv, at 2.5 to 10 µM, dose 2.5-10 µM"}, "[21]": {"test": "Reversal fold, ratio of ADR IC50 to ADR IC50 in presence of test compound for reversal of multi-drug resistance in human KVB cells at 10 uM measured after 72 hrs by MTT", "format": "functional, KBV"}, "KBV [22]": {"system": "KBV", "test": "Potentiation of PTX-mediated antimigratory activity against human KVB cells assessed as inhibition of cell migration at 2.5 to 10 uM and incubated for 24 hrs in presence of 50 nM by scratch wound healing assay", "format": "functional, cell-based", "conditions": "dose 2.5-10 µM"}, "[23]": {"target": "T1, ATP-dependent translocase ABCB1", "test": "Thermal stabilization of P-gp in human KVB cells at 58 to 61 degreeC by CETSA assay", "format": "cell-based", "conditions": "kbv"}, "[24]": {"test": "Reversal of multi-drug resistance in human KVB cells assessed as increase in PTX-induced cytotoxicity by measuring cell survival at 10 uM measured after 72 hrs incubation in presence of 100 nM paclitaxel by MTT assay relative to control", "format": "functional, KBV"}, "KBV [25]": {"system": "KBV", "test": "Potentiation of PTX-mediated inhibition of colony formation of human KVB cells assessed as reduction in colonies measured after 48 hrs by crystal violet staining based analysis", "format": "functional, cell-based", "conditions": "dose […] µM"}, "[26]": {"test": "Cytotoxicity against human KBV cells assessed as cell survival at 10 uM measured after 72 hrs incubation by MTT assay relative to control", "format": "functional", "conditions": "read-out: Activity"}, "[27]": {"test": "Reversal fold, ratio of cisplatin IC50 to cisplatin IC50 in presence of test compound for reversal of multi-drug resistance in human KVB cells at 10 uM measured after 72 hrs by MTT assay", "format": "functional, KBV"}, "[28]": {"target": "T1, ATP-dependent translocase ABCB1", "test": "Inhibition of P-gp-mediated rhodamine-123 efflux in human KVB cells assessed as increase in intracellular Rhodamine-123 accumulation incubated for 30 mins by flow cytometry", "format": "cell-based", "conditions": "kbv, 0.5 h, at 2.5 to 10 µM, dose 2.5-10 µM"}, "[29]": {"target": "T2, Broad substrate specificity ATP-binding cassette transporter ABCG2 (Homo sapiens, UniProt Q9UNQ0)", "T2 sequence (Q9UNQ0 whole entry)": "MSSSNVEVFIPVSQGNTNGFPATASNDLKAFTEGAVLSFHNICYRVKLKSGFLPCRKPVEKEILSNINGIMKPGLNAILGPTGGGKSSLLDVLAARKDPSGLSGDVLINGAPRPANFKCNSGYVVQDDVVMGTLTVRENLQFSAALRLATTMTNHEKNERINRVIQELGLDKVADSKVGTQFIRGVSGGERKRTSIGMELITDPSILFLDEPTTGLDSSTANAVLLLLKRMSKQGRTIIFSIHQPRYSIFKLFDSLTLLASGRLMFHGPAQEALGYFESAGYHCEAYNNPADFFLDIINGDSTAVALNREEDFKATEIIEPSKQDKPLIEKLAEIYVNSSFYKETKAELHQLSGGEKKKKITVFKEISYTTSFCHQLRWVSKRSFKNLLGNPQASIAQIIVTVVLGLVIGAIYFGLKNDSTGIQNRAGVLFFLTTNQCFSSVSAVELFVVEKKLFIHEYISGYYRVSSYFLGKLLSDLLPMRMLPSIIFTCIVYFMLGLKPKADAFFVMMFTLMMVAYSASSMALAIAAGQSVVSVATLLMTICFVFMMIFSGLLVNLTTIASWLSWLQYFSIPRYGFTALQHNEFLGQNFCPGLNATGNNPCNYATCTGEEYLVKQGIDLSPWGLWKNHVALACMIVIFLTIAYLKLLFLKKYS", "test": "Thermal stabilization of ABCG2 in human KVB cells by CETSA assay", "format": "cell-based", "conditions": "kbv"}}, "note": "Structures can show the parent of a compound that is named as a salt. The source made the active and inactive calls. The calls are words filed in the database; no cut-off is given here.", "data": [{"smiles": "O=c1[nH]cc(F)c(=O)[nH]1", "note": "[FLUOROURACIL]", "values": [{"measurement": "IC50", "setting": "[1]", "result": 829, "unit": "µM"}]}, {"smiles": "COc1ccc(CCN(C)CCCC(C#N)(c2ccc(OC)c(OC)c2)C(C)C)cc1OC", "note": "(stereo unspecified)", "values": [{"measurement": "IC50 at 72 h", "setting": "[2]", "result": 53.4, "unit": "µM"}, {"measurement": "IC50 at 72 h", "setting": "[3]", "result": "> 100", "unit": "µM"}, {"measurement": "Activity", "setting": "[4]", "result": "Active"}]}, {"smiles": "COc1ccc2c3c([nH]c2c1)[C@H](CC(C)C)N1C(=O)[C@H](CCC(=O)OC(C)(C)C)NC(=O)[C@@H]1C3", "values": [{"measurement": "Ratio IC50", "setting": "[5]", "result": 3.2}]}, {"smiles": "COc1cccc2c1C(=O)c1c(O)c3c(c(O)c1C2=O)C[C@@](O)(C(=O)CO)C[C@@H]3O[C@H]1C[C@H](N)[C@H](O)[C@H](C)O1", "note": "[DOXORUBICIN HYDROCHLORIDE]", "values": [{"measurement": "IC50", "setting": "[1]", "result": 8.19, "unit": "µM"}]}, {"smiles": "CN(C)C(=O)CCSC(SCCC(=O)O)c1cccc(/C=C/c2ccc3ccc(Cl)cc3n2)c1", "note": "(stereo unspecified) [MK-571]", "values": [{"measurement": "Ratio IC50", "setting": "[6]", "result": 6.4}]}, {"smiles": "CC(C)(O)[C@H]1CC[C@@](C)([C@H]2CC[C@]3(C)[C@@H]2[C@H](O)C[C@@H]2[C@@]4(C)CC[C@H](NC(=O)[C@@H]5CCCCN5)C(C)(C)[C@@H]4CC[C@]23C)O1", "values": [{"measurement": "Activity", "setting": "[7]", "result": 41, "unit": "%"}, {"measurement": "Ratio IC50", "setting": "[8]", "result": 116.7}, {"measurement": "viability at 5 µM", "setting": "[9]", "result": 96, "unit": "%"}, {"measurement": "Activity", "setting": "[4]", "result": "Active"}]}, {"smiles": "COc1cc2c(cc1OC)CN(CCc1ccc(NC(=O)c3cc(OC)c(OC)cc3NC(=O)c3cnc4ccccc4c3)cc1)CC2", "values": [{"measurement": "inhibition (INH)", "setting": "[10]", "result": "Active"}, {"measurement": "IC50", "setting": "[1]", "result": 8.66, "unit": "µM"}, {"measurement": "IC50 at 72 h", "setting": "[2]; read-out: IC50", "result": 8.03, "unit": "µM"}, {"measurement": "IC50 at 72 h", "setting": "[3]", "result": 40.3, "unit": "µM"}, {"measurement": "Ratio", "setting": "[11]", "result": 206.6}]}, {"smiles": "CC(=O)O[C@H]1C(=O)[C@@]2(C)[C@H]([C@H](OC(=O)c3ccccc3)[C@]3(O)C[C@H](OC(=O)[C@H](O)[C@@H](NC(=O)c4ccccc4)c4ccccc4)C(C)=C1C3(C)C)[C@]1(OC(C)=O)CO[C@@H]1C[C@@H]2O", "values": [{"measurement": "Activity", "setting": "KBV [12]", "result": "inactive"}, {"measurement": "Activity", "setting": "KBV [13]", "result": "inactive"}]}, {"smiles": "CC(C)(C)OC(=O)N1CC(CC(=O)N[C@H]2CC[C@]3(C)[C@H]4C[C@@H](O)[C@@H]5[C@@H]([C@]6(C)CC[C@H](C(C)(C)O)O6)CC[C@@]5(C)[C@]4(C)CC[C@H]3C2(C)C)C1", "values": [{"measurement": "Activity", "setting": "[14]", "result": "Not Active"}, {"measurement": "Activity", "setting": "KBV [15]", "result": "inactive"}, {"measurement": "Ratio IC50", "setting": "[16]", "result": 1}, {"measurement": "Activity", "setting": "[7]", "result": 36, "unit": "%"}, {"measurement": "Ratio IC50", "setting": "[17]", "result": 7.9}, {"measurement": "Activity", "setting": "KBV [18]", "result": "inactive"}, {"measurement": "Ratio IC50", "setting": "[19]", "result": 1}, {"measurement": "inhibition (INH)", "setting": "[20]", "result": "Dose-Dependent Effect"}, {"measurement": "Ratio IC50", "setting": "[21]", "result": 14.8}, {"measurement": "Activity", "setting": "KBV [22]", "result": "Active"}, {"measurement": "Activity", "setting": "[23]", "result": "Active"}, {"measurement": "Activity", "setting": "[24]", "result": 23, "unit": "%"}, {"measurement": "IC50", "setting": "[1]", "result": 44.9, "unit": "µM"}, {"measurement": "Ratio IC50", "setting": "[5]", "result": 1.1}, {"measurement": "Activity", "setting": "KBV [25]", "result": "Dose-Dependent Effect"}, {"measurement": "viability at 10 µM", "setting": "[26]", "result": 92, "unit": "%"}, {"measurement": "IC50 at 72 h", "setting": "[2]; read-out: IC50", "result": 63.1, "unit": "µM"}, {"measurement": "IC50 at 72 h", "setting": "[3]", "result": "> 100", "unit": "µM"}, {"measurement": "Ratio", "setting": "[11]", "result": 211.8}, {"measurement": "Ratio IC50", "setting": "[27]", "result": 1}, {"measurement": "inhibition (INH)", "setting": "[28]", "result": "Dose-Dependent Effect"}, {"measurement": "Activity", "setting": "[29]", "result": "Not Active"}, {"measurement": "Activity", "setting": "[4]", "result": "Active"}]}]}
